According to patent EP0248858B1, “NOVEL PHOSPHO-COMPOUNDS AND M[…]” (Max-Planck-Gesellschaft zur Förderung der Wissenschaften …, priority 1985, dated 1987):

System: chemisch induzierten Mamma-Karzinomen
Experiment: chemically induced mammary carcinoma of the rat, oral administration as drinking solution
Format: in vivo
Details: Ratten; for Remission von chemisch induzierten Mamma-Karzinomen: oral (Trinklösung), Tagesdosen von 20, 40 und 60 mg/kg Körpergewicht; for Verträglichkeit compared with 1-Octadecyl-2-methyl-rac-glycero-3-phospho-cholin / Wirksamkeit compared with 1-Octadecyl-2-methyl-rac-glycero-3-phospho-cholin: oral, comparison with 1-Octadecyl-2-methyl-rac-glycero-3-phospho-cholin
Description: Die erfindungsgemäßen Arzneimittel, welche als Wirkstoffe eine Verbindung der allgemeinen Formel I enthalten, besitzen eine ausgeprägte cytotoxische Wirksamkeit, die sowohl in vivo am chemisch induzierten Mamma-Karzinom der Ratte, als auch in vitro an Leukämiezellen in der Zellkultur nachgewiesen wurde. Darüberhinaus wurden in einer klinischen Pilotstudie bei Patientinnen mit Mamma-Karzinom Hautmetastasen zur vollständigen Abheilung bei topischer Anwendung gebracht.
Für die orale Verabreichung werden die Verbindungen der allgemeinen Formel I zweckmäßig in Form einer Trinklösung angewendet. Als Träger eignen sich beispielsweise Milch, Kakao, Fruchtsaft oder Trinkwasser. […] Bei dem für diese Versuche verwendeten Tumormodell handelt es sich um ein sogenanntes hartes Modell. Dies bedeutet, daß die an diesem Modell erstellten Befunde in den meisten Fällen auch auf die humane Situation übertragbar sind.

CCCCCCCCCCCCCCCCOP(=O)([O-])OCC[N+](C)(C)C [Hexadecylphosphocholin]
Remission von chemisch induzierten Mamma-Karzinomen: vollständigen Remission
Verträglichkeit compared with 1-Octadecyl-2-methyl-rac-glycero-3-phospho-cholin: besser verträglich
Wirksamkeit compared with 1-Octadecyl-2-methyl-rac-glycero-3-phospho-cholin: besser wirksam

CCCCCCCC/C=C\CCCCCCCCOP(=O)([O-])OCC[N+](C)(C)C [Oleylphosphocholin]
Remission von chemisch induzierten Mamma-Karzinomen: vollständigen Remission
Verträglichkeit compared with 1-Octadecyl-2-methyl-rac-glycero-3-phospho-cholin: besser verträglich
Wirksamkeit compared with 1-Octadecyl-2-methyl-rac-glycero-3-phospho-cholin: besser wirksam
